Measured values: article PMC7904827 (Scientific Reports, 2021)
Structures can show the parent of a compound that is named as a salt.

Key:
[1] = Incubation in DMEM in an incubator (5% CO2, 37 °C) without cells; assay type: in vitro ADME; conditions: 100 µM
Protocol: Herein, incubations were performed in DMEM (100 μM) in a CelCulture Incubator (5% CO2, 37 °C, ESCO, USA) to mimic the conditions of the in vitro cytoprotective assay, and the results were compared to those from the saline buffer (116 mM NaCl, 5.3 mM KCl, 1.2 mM MgSO4, 1 mM CaCl2, 1.13 mM NaH2PO4, 5 mM glucose, and 20 mM HEPES, pH = 7.4).
(§1) From all of the above described experiments, samples were taken at predefined intervals, treated and immediately analyzed. All experiments were performed in four replicates, and the results are expressed as the mean ± SD.

[2] = Solubility and stability of the GK-667 dosing solution in saline; assay type: physicochemical
Protocol: This dose of the prodrug was easily soluble in a commercially available saline solution (sodium chloride 0.9%, B-Braun, Germany) at a concentration of 5 mg/mL, which is convenient for administration to rabbits as an experimental animal model and could also be used for future pharmacodynamics experiments.
(§2) GK-667 was freshly dissolved in saline (5 mg/mL) before each administration. New Zealand White male rabbits (n = 6, ∼3.8 kg) received GK-667 (5 mg/kg) administered as a single slow (2 min) intravenous dose bolus to the ear marginal vein. Blood (∼1 mL) was sampled from veins on the contralateral ear at selected time points after drug administration (5 min to 9 h) into BD Vacutainers (BD Biosciences, Plymouth, UK) containing lithium heparin. Collected blood samples were immediately centrifuged (2 min, 3000 rpm, 4 °C), and plasma samples were harvested directly.

[3] = system: neonatal ventricular cardiomyocytes (NVCMs); test: In vitro cardioprotection bioassay against daunorubicin toxicity (LDH release); assay type: cell-based, rat; conditions: 3 h preincubation, DAU 1.2 µM, LDH release after 48 h
Protocol: NVCMs were isolated in-house from 1- to 3-day-old Wistar rats as described previously. The use of animals and experimental protocols were approved by Charles University, Faculty of Pharmacy Animal Welfare Committee. All experiments were performed in accordance with Directive 2010/63/EU on the Protection of Animals Used for Scientific Purposes and in compliance with Animal Research: Reporting of In Vivo Experiments (ARRIVE) guidelines. Newly isolated cardiomyocytes were left for 40 h to form a monolayer of spontaneously beating cardiomyocytes in seeding medium (DMEM/F12 supplemented with 10% HS, 5% FBS, 4% PYR and 1% P/S), which was then replaced with culture medium (DMEM/F12 supplemented with 5% FBS, 4% PYR and 1% P/S). The medium was replaced again after 24 h for new culture medium.
After 3 h, DAU solution (1.2 µM) was added to the media. After another 3 h, the medium was replaced with new (drug-free) exposure medium, and the cardiomyocytes were then kept until the end of the experiment. In addition to cytoprotective properties, the toxicity of the studied agent was also examined; this experiment was performed as described above with only the DAU addition step omitted.
Forty-five hours after the last medium exchange, a sample of medium was taken from each well to assess lactate dehydrogenase (LDH) activity[27]–[29]. For details, see the Supplementary material.
1.5 LDH activity evaluation
The control wells were treated with lysis buffer (0.1 M potassium phosphate, 1% Triton
X-100, 1 mM DTT, 2 mM EDTA; pH 7.8; 15 min; room temperature) to measure the total
cellular LDH level (sum of the activity in the control medium and the lysate). The activity of
LDH was assayed in Tris-HCl buffer (pH 8.9) containing 35 mM sodium lactate and 5 mM
NAD+. The rate of NAD+ reduction was monitored spectrophotometrically at 340 nm for 2 min.
The slope of the linear region and molar absorption coefficient e = 6.22*10 3 M/cm were used
to calculate the LDH activity, and the data were expressed as a percentage of total L DH activity. […]

[4] = ICRF-193 release from GK-667 in rabbit plasma in vitro; assay type: in vitro ADME; conditions: GK-667 10 and 100 µM, 37 °C
Protocol: as §1

[5] = In vivo pharmacokinetic study of GK-667 in rabbits, noncompartmental analysis; parameters: species or system rabbit
Protocol: as §2
Plasma samples taken 0 to 20 min after GK-667 administration were immediately processed by the addition of formic acid and precipitation with ice-cold methanol. The supernatants were then analyzed for all analytes, including the intact prodrug. This was essential to ensure the appropriate determination of highly labile GK-667 at the first sampling intervals, and the whole procedure was validated for this purpose. […] Thus, all following plasma samples were immediately shock-frozen in liquid nitrogen and stored at -80 °C until analysis.
For drug administration and blood sampling, light anesthesia was induced in rabbits with a mixture of ketamine (25 mg/kg, i.m.) and midazolam (2.5 mg/kg, i.m.); sedation was then maintained with midazolam when needed. The blood withdrawn from the animals was compensated with an appropriate volume of sterile saline. All in vivo experiments and procedures were approved and supervised by the Animal Welfare Committee of the Faculty of Medicine in Hradec Kralove (Charles University), and the experiments were performed in compliance with the ARRIVE guidelines.
Standard noncompartmental analysis was performed using Kinetica software (version 4.0, Thermo Fisher Scientific Inc., USA). The population parameter estimation for nonlinear mixed effect models was conducted using Monolix version 2019R2 software (Antony, France: Lixoft SAS, 2019, http://lixoft.com/products/monolix/). The stochastic approximation expectation maximization (SAEM) algorithm coupled with Markov Chain Monte Carlo (MCMC) without the use of approximations (linearization) was used for the estimation of the likelihood. For evaluation of the goodness-of-fit, the following plots were assessed: observed versus individual predicted concentrations, weighted residuals versus time and weighted residuals versus predictions. Individual parameter values were obtained as empirical Bayes estimates. A visual predictive check with 1000 simulated data sets was performed.

## C[C@H]([C@H](C)N1CC(=O)N(COC(=O)CN)C(=O)C1)N1CC(=O)N(COC(=O)CN)C(=O)C1 [GK-667, meso-2,3-bis(4-(2-aminoacetoxymethyl)-3,5-dioxopiperazin-1-yl)butane tetrahydrochloride]
[1]
  degradation in DMEM without cells: rapidly degraded
[2]; 5 mg/mL in saline, 20 °C
  time the saline solution stays physically and chemically stable: at least 1 h
[2]; 5 mg/mL in saline, 20 °C, 1 h
  GK-667 concentration remaining in saline solution: ≥ 95 % of the initial amount
[2]; saline (sodium chloride 0.9%)
  solubility: ≥ 5 mg/mL
[3]
  lowest concentration with significant protection against DAU-induced toxicity: matched the results of ICRF-193
[4]
  metabolism of the prodrug in plasma: rapidly metabolized
[5]; male, New Zealand White, rabbit, plasma, iv, 5 mg/kg, rabbits n = 6, GK-667 5 mg/kg i.v., NCA
  Cmax: 2.7 µM
[5]; male, New Zealand White, rabbit, plasma, iv, rabbits n = 6, GK-667 5 mg/kg i.v., NCA, read-out: Tmax (converted)
  Tmax: 5 min
[5]; male, New Zealand White, rabbit, plasma, iv, rabbits, GK-667 5 mg/kg i.v., 5th min, read-out: mean plasma concentration of the prodrug
  concentration at 5 min: 2.7 µM
[5]; male, New Zealand White, rabbit, plasma, iv, rabbits, GK-667 5 mg/kg i.v., 10th min, read-out: mean plasma concentration of the prodrug
  concentration at 10 min: 0.4 µM
[5]; male, New Zealand White, rabbit, plasma, iv, rabbits, GK-667 5 mg/kg i.v., 20 min, in all but one animal, read-out: plasma concentration of the prodrug (below LLOQ)
  concentration at 20 min: < 0.1 µM
[5]; rabbits, after injection of GK-667
  time to essentially complete clearance of the parent compound from plasma: ≤ 10 min
